Values quoted from earlier work, collected in patent publication US20130078304A1, “CONTROLLED RELEASE FORMULATION FOR TREATING SLEEP DISORDERS” (TAIWAN BIOTECH CO., LTD., priority 2011, published 2013).

Tests used:
[1] = target: T1, benzodiazepine (BZ1) receptors (Homo sapiens, UniProt P14867+P18507)
T1 sequence (P14867 28-456): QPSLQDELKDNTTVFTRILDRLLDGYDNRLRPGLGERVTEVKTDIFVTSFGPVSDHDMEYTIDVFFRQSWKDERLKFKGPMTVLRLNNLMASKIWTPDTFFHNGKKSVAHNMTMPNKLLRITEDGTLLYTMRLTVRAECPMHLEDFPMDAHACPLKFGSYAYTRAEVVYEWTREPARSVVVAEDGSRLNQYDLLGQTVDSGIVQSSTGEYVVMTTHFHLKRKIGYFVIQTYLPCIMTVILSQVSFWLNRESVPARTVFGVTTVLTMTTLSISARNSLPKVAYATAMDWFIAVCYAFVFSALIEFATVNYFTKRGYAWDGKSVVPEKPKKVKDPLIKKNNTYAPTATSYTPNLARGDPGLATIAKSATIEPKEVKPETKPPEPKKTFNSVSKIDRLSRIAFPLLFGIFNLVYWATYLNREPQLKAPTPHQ
T1 sequence (P18507 40-467 limits assumed): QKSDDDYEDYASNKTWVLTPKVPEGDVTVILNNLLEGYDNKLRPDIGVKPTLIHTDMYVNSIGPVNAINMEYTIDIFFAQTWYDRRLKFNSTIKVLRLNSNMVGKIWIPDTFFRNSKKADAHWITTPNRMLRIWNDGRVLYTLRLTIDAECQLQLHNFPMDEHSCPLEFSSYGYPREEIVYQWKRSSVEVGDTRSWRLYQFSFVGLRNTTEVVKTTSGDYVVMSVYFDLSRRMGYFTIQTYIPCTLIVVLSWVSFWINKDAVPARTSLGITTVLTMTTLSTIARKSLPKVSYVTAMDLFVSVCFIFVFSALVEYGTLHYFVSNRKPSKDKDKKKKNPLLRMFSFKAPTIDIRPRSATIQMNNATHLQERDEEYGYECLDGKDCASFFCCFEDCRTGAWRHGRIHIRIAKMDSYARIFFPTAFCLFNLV
T1 sequence (P47870 25-512 partner limits assumed): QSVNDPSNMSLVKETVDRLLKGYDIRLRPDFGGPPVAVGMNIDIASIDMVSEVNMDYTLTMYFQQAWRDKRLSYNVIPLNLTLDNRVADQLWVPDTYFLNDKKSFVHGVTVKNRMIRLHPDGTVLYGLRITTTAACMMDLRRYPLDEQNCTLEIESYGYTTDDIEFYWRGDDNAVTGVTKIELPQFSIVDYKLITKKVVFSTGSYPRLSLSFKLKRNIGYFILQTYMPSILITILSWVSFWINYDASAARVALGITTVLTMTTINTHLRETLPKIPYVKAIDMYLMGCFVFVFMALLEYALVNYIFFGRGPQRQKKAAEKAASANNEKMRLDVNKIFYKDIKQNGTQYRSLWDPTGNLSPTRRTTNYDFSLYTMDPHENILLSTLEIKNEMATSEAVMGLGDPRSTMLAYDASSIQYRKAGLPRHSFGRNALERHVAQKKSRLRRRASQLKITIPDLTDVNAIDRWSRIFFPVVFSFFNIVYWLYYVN

CCN(C(C)=O)c1cccc(-c2ccnc3c(C#N)cnn23)c1 [Zaleplon, N-[3-(3-cyanopyrazolo-[1,5-a]-pyrimidin-7-yl)-phenyl]-N-ethyl acetamide]
solubility in aqueous media: poorly soluble
binding to the BZ1 receptor [1]: more weakly bound to the receptor than is Zolpidem
